Experimental data reported in publication PMC10577883, “Design and Optimization of Novel Competitive, Non-peptidic, SARS-CoV-2 M^pro Inhibitors” (ACS Medicinal Chemistry Letters, 2023).
“And” between values parts separate entries of the source, which are not always exact repeats. Equal values may be shown once. Read-outs that look alike come from different tables or passages of the source.

What was measured:
[1] = tested on: SARS-CoV-2-Nluc reporter virus; experiment: microbe, parasite or virus in culture; assay type: cell-based; conditions: for EC50: Severe acute respiratory syndrome coronavirus 2, VeroE6/TMPRSS2 cells, parentheses denote 95% confidence intervals
SARS-CoV-2 Mpro (3CLpro) = SARS-CoV-2 Mpro (3CLpro) (Severe acute respiratory syndrome coronavirus 2, UniProt P0DTD1); experiment: SARS-CoV-2 recombinant protease enzymatic assay (FRET); assay type: biochemical; conditions: for IC50: recombinant Mpro, FRET peptide substrate
in vitro = conditions: chlorocebus sabaeus
[2] = Mouse liver microsome stability assay; conditions: for MLM percentage remaining after 30 min: 3 μM, 37 °C; for half-life at 3 µM / remaining at 5 min, 3 µM / remaining at 10 min, 3 µM / remaining at 0.25 h, 3 µM: CD-1, mouse, microsomes
Experimental: Metabolic Stability Assay
(§3) Liver Microsome Stability Assay Protocol
(§4) Human liver microsomes (HLMs, 20 mg/mL), CD-1 mouse liver microsomes (MLMs, 20 mg/mL), Sprague Dawley
(§5) rat liver microsomes (RLMs, 20 mg/mL) were purchased from Xenotech. NADPH was purchased from Sigma-
(§6) Aldrich and prepared in 10 mM stock solutions of distilled H2O (InvitrogenTM UltraPureTM). Verapamil and
(§7) diphenhydramine were both purchased from Sigma-Aldrich and served as positive controls for LM stability assays.
(§8) Test compounds and positive controls were initially dissolved in DMSO to make 10 mM stock solutions. Sample
(§9) solutions were then further diluted in 100% MeCN to 500 μM. Next, the reactions were prepared by mixing human
(§10) or mouse liver microsomes (55 μL) with potassium phosphate buffer (100 mM, 928 μL) in 1.5 mL Eppendorf tubes.
(§11) The test compounds (6.6 μL of 500 μM solution) were subsequently added to the suspensions, and the reaction
(§12) mixtures were incubated at 37 °C for 5 min. Afterward, the liver microsome reactions were initiated with 110 μL
(§13) of 10 mM NADPH and further incubated at 37 °C for the designated time course of the study. This procedure
(§14) provided experiments with a final volume of 1100 μL (0.6% organic solvent content) and a final test compound
(§15) concentration of 3 μM. Aliquots (100 μL) were removed from each reaction mixture in duplicate at 0, 5, 10, 15,
(§16) and 30 min time intervals and quenched with 100 μL of cold internal standard solution (ISTD, 2 μM
(§17) 7-ethoxy-d 5-coumarin in MeOH or MeCN). Quenched aliquots were then centrifuged at 12,500 g for 5-10 min, and
(§18) the resulting supernatants were withdrawn and placed in LC-MS vials to be analyzed by LC-MS/MS (Agilent
(§19) G6460C QQQ MS coupled with an Infinity II 1260 HPLC). Each test compound was run in tandem with positive and
(§20) negative control experiments for quality assurance. Positive control reactions were conducted at a final volume
(§21) of 550 μL for a single run of each time point. Lastly, the negative control experiment was conducted with test
(§22) compounds and liver microsomes in the absence of NADPH (150 μL) and analyzed at the 30 min time point.
(§23) Data Analysis. Each data point was analyzed in triplicate using in-between blank washes to avoid carry over and
(§24) to equilibrate the column for the subsequent runs. Averages of these triplicates for individual compounds at each
(§25) time point were then normalized to the data at 0 min, representing 100% test compound remaining or 0%
(§26) metabolism. Half-lives (t 1/2) were calculated by plotting ln of % test compound remaining versus time and
(§27) performing linear regression to determine slope.
(§28) Instrumentation and LC-MS/MS Method Development
(§29) LC-MS/MS analyses were conducted on an Agilent 1260 Infinity II HPLC equipped with an Agilent G6460 triple
(§30) quadrupole mass spectrometer (Agilent Technologies, USA). Reverse-phase HPLC separation for each compound
(§31) m) column maintained at 40 °C. The mobile phase used during analyses consisted of either MeOH-H2O (0.1% FA)
(§32) or MeCN-H2O (0.1% FA) at a flow rate of 0.5 mL/min. Each method was developed in the presence of the internal
(§33) standard (ISTD), 7-ethoxy-d 5-coumarin. Precursor and product ion detection was performed with Agilent Jet
(§34) Stream electrospray positive ionization (ESI+) in multiple reaction monitoring (MRM) mode. All MRM transitions,
(§35) MS conditions were as follows: dwell time of 100 ms; gas flow of 10 L/min; nebulizer pressure of 45 psi; delta EMV
(§36) of 200 V. Lastly, all acquired data was processed using Agilent 6460 Quantitative Analysis software.

[3] = Human liver microsome stability assay; conditions: for HLM percentage remaining after 30 min: 3 μM, 37 °C; for half-life at 3 µM / remaining at 5 min, 3 µM / remaining at 10 min, 3 µM / remaining at 0.25 h, 3 µM: human, microsomes
Experimental: Metabolic Stability Assay
as §3, §4, §5, §6, §7, §8, §9, §10, §11, §12, §13, §14, §15, §16, §17, §18, §19, §20, §21, §22, §23, §24, §25, §26, §27, §28, §29, §30, §31, §32, §33, §34, §35, §36

[4] = Rat liver microsome stability assay; conditions: 37 °C; for half-life at 3 µM / remaining at 5 min, 3 µM / remaining at 10 min, 3 µM / remaining at 0.25 h, 3 µM: Sprague-Dawley, rat, microsomes; for half-life at 3 µM: RLM t1/2, 3 μM, unit inferred; for remaining at 5 min, 3 µM / remaining at 10 min, 3 µM / remaining at 0.25 h, 3 µM: RLM Rel % remaining
Experimental: Metabolic Stability Assay
as §3, §4, §5, §6, §7, §8, §9, §10, §11, §12, §13, §14, §15, §16, §17, §18, §19, §20, §21, §22, §23, §24, §25, §26, §27, §28, §29, §30, §31, §32, §33, §34, §35, §36

[5] = Oral dose escalation pharmacokinetics (10 and 100 mg/kg PO); assay type: in vivo, rat; conditions: for AUC(0-inf) / Cmax / Tlast / Tmax / half-life / concentration at 24 h: rat plasma, mean ± SD, n = 3; for concentration at 24 h: read-out: Clast
Experimental: (§1) To this end, 36 was studied in male Sprague–Dawley rats following a single intravenous dose at 0.25 mg/kg and an oral dose at 0.5 mg/kg (SI, Table S18).
Table S19. Summary of Pharmacokinetic Parameters (nmol/mL) for Compound 36 in Rat Plasma after a Single Oral
Dose of 36 at 10 mg/kg or 100 mg/kg
Dose Tmax Cmax Tlast Clast AUCinf t1/2
(mg/kg) (h) (nmol/mL) (h) (nmol/mL) (h*nmol/mL) (h)
Results are shown as averages and standard deviations (n = 3).
Figure S18. Average Concentrations (nmol/mL) of Compound 36 in Rat Plasma after a Single Oral Dose of 36 at 10
Left panel: Linear Scale, Right panel: Log Scale. Results are shown as averages and standard deviations (n = 3). […]

[6] = Pharmacokinetics after single IV and PO administration; assay type: in vivo, Male Sprague Dawley rats; conditions: male, Sprague-Dawley, rat, plasma
Experimental: as §1
Figure S16: Metabolite identification study of Compound 43 in liver microsomes using liquid chromatography coupled to high resolution mass spectrometry (LC-HRMS). The identification of metabolite Compound 43 M1 […]
(§2) MS analysis was performed using full scan from a mass range of 100-700 m/z at 60k resolution with data dependent MS/MS and MSn programs enabled for the top 5 ions detected for each scan. Compounds are detected based on their MS1 precursor ion accurate mass m/z and identified with matching theoretical and observed accurate mass MS1 ions with interpretation of accurate mass MS/MS spectra from expected […]
Table S18: Pharmacokinetic data of Compound 36 in Male Sprague Dawley rats following a single intravenous and oral administration (Dose: 0.25 mg/kg, IV and 0.5 mg/kg, PO)
Dose Tmax aC0/Cmax T1/2 CL Vss
Matrix Route AUClast AUCinf (mL/min %F […]
a – Back extrapolated concentration in IV group.
Figure S17: Plasma concentrations-time profiles (mean ± SD) of Compound 36 in Male Sprague Dawley rats following a single intravenous and oral administration (Dose: 0.25 mg/kg, IV and 0.5 mg/kg, PO) […]
(1 picture or pasted object on this page, not shown here)

[7] = Liver microsome metabolite identification (LC-HRMS); assay type: in vitro ADME; conditions: liver microsomes, LC-HRMS
Experimental: Figure S15: Stability of 45 in rat liver microsomes (RLM) at 37 °C
Table S17: Stability of 43 in rat liver microsomes (RLM) at 37 °C
Time Response ratio Average RR Rel % ln
Metabolite identification
Procedure for Liver Microsome Metabolite Identification Assay: Test compounds and positive controls were dissolved in 100% DMSO to make 10 mM stock solutions. The 10 mM stock solutions of test and control […]
(1 picture or pasted object on this page, not shown here) […]
compounds were further diluted in potassium phosphate buffer (100 mM, pH 7.4) to 500 μM to ensure that the organic solvent content was < 0.2%. The liver microsome (HLM or MLM) assay was prepared in a 1.5 mL Eppendorf tube with a final volume of […] for duplicate runs. Each reaction contained phosphate buffer (374 μL), liver microsomes (550 μL), and test compound (66 μL of 500 resulting in a final concentration of 30 μM), μM for the […]
test compound. […] Aliquots (100 μL) were removed in […]
as §2

O=c1[nH]cccc1-c1cn(-c2cc(Cl)cc(OCc3nc4ccccc4n3C(F)F)c2)c(=O)n(-c2cccnc2)c1=O [Compound 38]
EC50 [1]: 1890 nM | IC50 (SARS-CoV-2 Mpro (3CLpro)): 21 nM | CC50 (in vitro): > 100000 nM

O=c1[nH]cccc1-c1cn(-c2cc(Cl)cc(OCc3ncsc3C(F)(F)F)c2)c(=O)n(-c2cccnc2)c1=O [Compound 45]
EC50 range in words [1]: sub-micromolar | EC50 [1]: 820 nM | MLM percentage remaining after 30 min [2]: 14.4% and 14.41% | half-life at 3 µM [2]: 11 min | remaining at 5 min, 3 µM [2]: 54.6% | remaining at 10 min, 3 µM [2]: 43% | remaining at 0.25 h, 3 µM [2]: 20.6% | IC50 (SARS-CoV-2 Mpro (3CLpro)): 12 nM | HLM percentage remaining after 30 min [3]: 19.5% and 19.47% | half-life at 3 µM [3]: 13 min | remaining at 5 min, 3 µM [3]: 84.6% | remaining at 10 min, 3 µM [3]: 49.9% | remaining at 0.25 h, 3 µM [3]: 48.5% | RLM percentage remaining after 30 min ([4]; 3 μM): 30.9% | half-life at 3 µM [4]: 18 min | CC50 (in vitro): > 100000 nM

O=c1ccc(-c2cn(-c3cc(Cl)cc(Cl)c3)c(=O)n(-c3cccnc3)c2=O)c[nH]1 [Compound 7]
EC50 [1]: > 20000 nM | IC50 (SARS-CoV-2 Mpro (3CLpro)): 1580 nM and 1590 nM | CC50 (in vitro): > 100000 nM

Cn1c([N+](=O)[O-])cnc1COc1cc(Cl)cc(-n2cc(-c3ccc[nH]c3=O)c(=O)n(-c3cccnc3)c2=O)c1 [Compound 42]
EC50 [1]: 19300 nM | IC50 (SARS-CoV-2 Mpro (3CLpro)): 12 nM | CC50 (in vitro): > 100000 nM

O=c1[nH]cccc1-c1cn(-c2cc(Cl)cc(OCC3CC3)c2)c(=O)n(-c2cccnc2)c1=O [Compound 35]
EC50 [1]: 820 nM | IC50 (SARS-CoV-2 Mpro (3CLpro)): 100 nM | CC50 (in vitro): > 100000 nM

O=c1[nH]cccc1-c1cn(-c2cc(Cl)cc(OCCC(F)(F)F)c2)c(=O)n(-c2cccnc2)c1=O [Compound 36]
EC50 [1]: 1350 nM | MLM percentage remaining after 30 min [2]: 73.3% and 73.26% | half-life at 3 µM [2]: > 30 min | remaining at 5 min, 3 µM [2]: 93.9% | remaining at 10 min, 3 µM [2]: 90.1% | remaining at 0.25 h, 3 µM [2]: 83.8% | increase in AUC on 10-fold increase in dose ([5]; 10 mg/kg vs 100 mg/kg PO): 2 fold | AUC(0-inf) ([5]; PO 10 mg/kg): 23.2 ± 2.18 µM·h | Cmax ([5]; PO 10 mg/kg): 2610 ± 476 nM | Tlast ([5]; PO 10 mg/kg): 24.0 ± 0.00 h | Tmax ([5]; PO 10 mg/kg): 100 ± 34.6 min | half-life ([5]; PO 10 mg/kg): 161 ± 18.6 min | concentration at 24 h ([5]; PO 10 mg/kg): 12.6 ± 6.27 nM | AUC(0-inf) ([5]; PO 100 mg/kg): 49.9 ± 4.53 µM·h | Cmax ([5]; PO 100 mg/kg): 4130 ± 161 nM | Tlast ([5]; PO 100 mg/kg): 24.0 ± 0.00 h | Tmax ([5]; PO 100 mg/kg): 140 ± 91.8 min | half-life ([5]; PO 100 mg/kg): 224 ± 64.8 min | concentration at 24 h ([5]; PO 100 mg/kg): 114 ± 105 nM | IC50 (SARS-CoV-2 Mpro (3CLpro)): 55 nM | HLM percentage remaining after 30 min [3]: 91.7% and 91.71% | half-life at 3 µM [3]: > 30 min | remaining at 5 min, 3 µM [3]: 98.2% | remaining at 10 min, 3 µM [3]: 97.7% | remaining at 0.25 h, 3 µM [3]: 98.2% | RLM percentage remaining after 30 min ([4]; 3 μM): 86.4% and 86.41% | remaining at 5 min, 3 µM ([4]; 5 min): 95.4% | remaining at 10 min, 3 µM ([4]; 10 min): 90.9% | remaining at 0.25 h, 3 µM ([4]; 15 min): 88.8% | half-life at 3 µM [4]: > 30 min | CC50 (in vitro): > 100000 nM | bioavailability ([6]; PO 0.5 mg/kg vs IV 0.25 mg/kg, read-out: %F (oral bioavailability)): 40.6% and 41% | AUC(0-inf) ([6]; IV 0.25 mg/kg): 1680 ng·h/mL | AUC(0-t) ([6]; IV 0.25 mg/kg): 1610 ng·h/mL | clearance ([6]; IV 0.25 mg/kg): 2.49 mL/min/kg | half-life ([6]; IV 0.25 mg/kg): 103 min | C0 ([6]; IV 0.25 mg/kg, read-out: C0 (back extrapolated concentration)): 1330 ng/mL | Vd ([6]; IV 0.25 mg/kg, read-out: Vss): 0.33 L/kg | AUC(0-inf) ([6]; PO 0.5 mg/kg): 1690 ng·h/mL | AUC(0-t) ([6]; PO 0.5 mg/kg): 1310 ng·h/mL | Cmax ([6]; PO 0.5 mg/kg): 285 ng/mL | Tmax ([6]; PO 0.5 mg/kg): 100 min

O=c1[nH]cccc1-c1cn(-c2cc(Cl)cc(OCc3ccccc3Cl)c2)c(=O)n(-c2cccnc2)c1=O [Compound 43]
EC50 range in words [1]: sub-micromolar | EC50 [1]: 130 nM | MLM percentage remaining after 30 min [2]: 4.0% and 3.96% | half-life at 3 µM [2]: 3 min | remaining at 5 min, 3 µM [2]: 22.8% | remaining at 10 min, 3 µM [2]: 10.4% | remaining at 0.25 h, 3 µM [2]: 7.53% | IC50 range in words (SARS-CoV-2 Mpro (3CLpro)): single-digit nanomolar range | IC50 (SARS-CoV-2 Mpro (3CLpro)): 8.6 nM | major microsomal metabolite / metabolic route [7]: ether cleavage | HLM percentage remaining after 30 min [3]: 48% and 47.72% | half-life at 3 µM [3]: 27.8 min | remaining at 5 min, 3 µM [3]: 91.6% | remaining at 10 min, 3 µM [3]: 76.9% | remaining at 0.25 h, 3 µM [3]: 70.7% | RLM percentage remaining after 30 min ([4]; 3 μM): 26.6% and 26.55% and 30.88% | RLM t1/2 ([4]; 3 μM, unit not given): 19.8 min | RLM Rel % remaining ([4]; 5 min): 80.16% | RLM Rel % remaining ([4]; 10 min): 63.43% | RLM Rel % remaining ([4]; 15 min): 57.78% | remaining at 5 min, 3 µM ([4]; 5 min): 71.1% | remaining at 10 min, 3 µM ([4]; 10 min): 55.3% | remaining at 0.25 h, 3 µM ([4]; 15 min): 43.5% | half-life at 3 µM [4]: 16.1 min | CC50 (in vitro): > 100000 nM

Cc1scnc1COc1cc(Cl)cc(-n2cc(-c3ccc[nH]c3=O)c(=O)n(-c3cccnc3)c2=O)c1 [Compound 39]
EC50 [1]: 5000 nM | IC50 (SARS-CoV-2 Mpro (3CLpro)): 17 nM | CC50 (in vitro): > 100000 nM
